Data: patent US6217848A, “Cyanine and indocyanine dye bioconjugates for biomedical applications” (Mallinckrodt Inc., priority 1999, dated 2001)

Experiments:
[1] = Blood clearance profile of peptide-dye conjugates monitored at the rat ear; type: in vivo, Sprague-Dawley or Fischer 344 rats; conditions: bolus injection in the lateral tail vein, 0.5 to 2.0 mL
From the text: A laser of appropriate wavelength for excitation of the dye chromophore was directed into one end of a fiber optic bundle and the other end was positioned a few millimeters from the ear of a rat. A second fiber optic bundle was also positioned near the same ear to detect the emitted fluorescent light and the other end was directed into the optics and electronics for data collection. An interference filter (IF) in the collection optics train was used to select emitted fluorescent light of the appropriate wavelength for the dye chromophore.
Sprague-Dawley or Fischer 344 rats were used in these studies. The animals were anesthetized with urethane administered via intraperitoneal injection at a dose of 1.35 g/kg body weight. After the animals had achieved the desired plane of anesthesia, a 21 gauge butterfly with 12" tubing was placed in the lateral tail vein of each animal and flushed with heparinized saline. The animals were placed onto a heating pad and kept warm throughout the entire study. The lobe of the left ear was affixed to a glass microscope slide to reduce movement and vibration.
Incident laser light delivered from the fiber optic was centered on the affixed ear. Data acquisition was then initiated, and a background reading of fluorescence was obtained prior to administration of the test agent. For Cytates 1 or 2, the peptide-dye conjugate was administered to the animal through a bolus injection in the lateral tail vein, typically of 0.5 to 2.0 mL.
This procedure was repeated with several dye-peptide conjugates in normal and tumored rats and representative profiles are shown in FIGS. 6 to 10.

[2] = test system: Rat Pancreatic Acinar Carcinoma (CA20948); test: Imaging of individual organs removed from rat with CA20948 tumor; type: in vivo; conditions: about 24 hours after injection (FIG. 5)
Protocol: FIG. 5 is an image of individual organs taken from a rat with pancreatic acinar carcinoma (CA20948) about 24 hours after injection with Cytate 1.
(§1) A non-invasive in vivo fluorescence imaging apparatus was employed to assess the efficacy of contrast agents developed for tumor detection in animal models. A LaserMax Inc. laser diode of nominal wavelength 780 nm and nominal power of 40 mW was used. The detector was a Princeton Instruments model RTE/CCD-1317-K/2 CCD camera with a Rodenstock 10 mm F2 lens (stock #542.032.002.20) attached. An 830 nm interference […] (CVI Laser Corp., part # F10-830-4-2) was mounted in front of the CCD input lens such that only emitted fluorescent light from the contrast agent was imaged. Typically, an image of the animal was taken pre-injection of contrast agent. This image was subsequently subtracted (pixel by pixel) from the post injection images. However, the background subtraction was […] done once the animal had been removed from the sample area and returned at a later time for images taken several hours post injection.
Individual organs were removed and imaged. […] This correlates very nicely with radiolabeled Octreotate in the same model system (see de Jong et al., 1998).

[3] = test system: Rat Pancreatic Acinar Carcinoma (CA20948); test: In vivo fluorescence imaging of rat pancreatic acinar carcinoma (CA20948) expressing the SST-2 receptor; design: species or system Lewis rat; conditions: for fluorescence in tumored rats at 45 minutes: 45 minutes post injection (FIGS. 2A-B)
From the text: as §1
The animals were anesthetized with rat cocktail (xylazine; ketamine; acepromazine 1.5: 1.5: 0.5) at 0.8 mL/kg via intramuscular injection. The area of the tumor (left flank) was shaved to expose tumor and surrounding surface area. A 21 gauge butterfly equipped with a stopcock and two syringes containing heparinized saline was placed into the later tail vein of the rat. Patency of the vein was checked prior to administration of the ICG via the butterfly apparatus. Each animal received 500 μL of a 0.42 mg/mL solution of ICG in water.
The imaging apparatus and the procedure used are described in Example 9. Rat pancreatic acinar carcinoma expressing the SST-2 receptor (CA20948) were induced by solid implant technique in the left flank area and palpable masses were detected 9 days post implant.
The imaging apparatus and the procedure used are described in Example 9 except that each animal received 500 μL of a 1.0 mg/mL solution of Cytate 1 solution of 25% dimethylsulfoxide in water. Rat pancreatic acinar carcinoma expressing the SST-2 receptor (CA20948) were induced by solid implant technique in the left flank area and palpable masses were detected 24 days post implant. Images were obtained at various times post injection. […] FIGS. 2A-B show a comparison of the uptake of ICG and Cytate 1 at 45 minutes in rats with the CA20948 tumor cell line.
Cytate 1 was evaluated in the CA20948 Lewis rat model. […] As a control, the organs were imaged again (FIG. 4A) and the image was compared with that of the same tissues in the uninjected rat (FIG. 4B).

[4] = test system: pancreatic ductal adenocarcinoma (DSL 6A); test: In vivo fluorescence imaging of pancreatic ductal adenocarcinoma (DSL 6A) in rats; design: species or system male Lewis rats
From the text: as §1
DSL 6A tumors were induced in male Lewis rats in the left flank area by the introduction of material from a solid (donor) implant and the tumors were palpable in approximately 14 days.
The animals were anesthetized with rat cocktail (xylazine; ketamine; acepromazine 1.5: 1.5: 0.5) at 0.8 mL/kg via intramuscular injection. The area of the tumor (left flank) was shaved to expose tumor and surrounding surface area. […]

[5] = test system: Prostatic Carcinoma (R3327-H); test: In vivo fluorescence imaging of prostatic carcinoma (R3327-H) in rats; design: species or system young male Copenhagen rats; conditions: Dunning R3327-H
From the text: as §1
The animals were anesthetized with rat cocktail (xylazine; ketamine; acepromazine 1.5: 1.5: 0.5) at 0.8 mL/kg via intramuscular injection. The area of the tumor (left flank) was shaved to expose tumor and surrounding surface area. A 21 gauge butterfly equipped with a stopcock and two syringes containing heparinized saline was placed into the later tail vein of the rat. Patency of the vein was checked prior to administration of the ICG via the butterfly apparatus. […]

[6] = test system: somatostatin (SST-2) receptors; conditions: cited from earlier work

**Q.** Which “decay of fluorescence signal (blood clearance)” value [1] does the source give for `C[C@@H](O)[C@H](NC(=O)[C@@H]1CSSC[C@H](NC(=O)[C@@H](Cc2ccccc2)NC(=O)CC[N+]2=C(/C=C/C=C/C=C/C=C3/N(CCC(=O)O)c4ccc5ccccc5c4C3(C)C)C(C)(C)c3c2ccc2ccccc32)C(=O)N[C@@H](Cc2ccc(O)cc2)C(=O)N[C@H](Cc2c[nH]c3ccccc23)C(=O)N[C@@H](CCCCN)C(=O)N[C@@H]([C@@H](C)O)C(=O)N1)C(=O)O` [Cytate 1, monoOctreotate-Bisethylcarboxymethylindocyanine dye] here?
**A.** decayed as a function of time as the conjugate cleared from the bloodstream

**Q.** What about the “fluorescence signal after bolus injection (rise)” value [1] of the same molecule?
**A.** rapidly increased to a peak value

**Q.** What about the “uptake in heart, muscle, spleen and liver” value [2] of the same molecule?
**A.** significantly less uptake

**Q.** What about the “uptake in pancreas, adrenals and tumor tissue” value [2] of the same molecule?
**A.** High uptake

**Q.** And the “uptake into the tumor” value ([3]; CA20948, 2 minutes post injection, 500 μL of 1.0 mg/mL in 25% dimethylsulfoxide in water)?
**A.** Uptake into the tumor was seen at 2 minutes

**Q.** And the “fluorescence in tumored rats at 45 minutes” value ([3]; CA20948)?
**A.** still quite intense

**Q.** And the “localization in the tumor” value ([3]; CA20948, 90 minutes post injection (FIG. 3A))?
**A.** strong localization

**Q.** And the “specificity for the SST-2 receptors” value ([3]; CA20948, 19 hours post injection)?
**A.** showing specificity of this agent for the SST-2 receptors

**Q.** What about the tumor visualization ([3]; CA20948, 19 hours post injection (FIG. 3B)) of the same molecule?
**A.** tumor visualization was easily observed

**Q.** And the “duration of dye fluorescence in the tumor” value ([3]; CA20948, post-injection)?
**A.** remained intense in the tumor for several hours post-injection

**Q.** With `C[C@@H](O)[C@H](NC(=O)[C@@H]1CSSC[C@H](NC(=O)[C@@H](Cc2ccccc2)NC(=O)CCN2C(=CC=CC=CC=CC3=[N+](CCC(=O)N[C@H](Cc4ccccc4)C(=O)N[C@H]4CSSC[C@@H](C(=O)N[C@H](C(=O)O)[C@@H](C)O)NC(=O)[C@H]([C@@H](C)O)NC(=O)[C@H](CCCCN)NC(=O)[C@@H](Cc5c[nH]c6ccccc56)NC(=O)[C@H](Cc5ccc(O)cc5)NC4=O)c4ccc5ccccc5c4C3(C)C)C(C)(C)c3c2ccc2ccccc32)C(=O)N[C@@H](Cc2ccc(O)cc2)C(=O)N[C@H](Cc2c[nH]c3ccccc23)C(=O)N[C@@H](CCCCN)C(=O)N[C@@H]([C@@H](C)O)C(=O)N1)C(=O)O` [Cytate 2, bisOctreotate-Bisethylcarboxymethylindocyanine dye] as the molecule, how does the “decay of fluorescence signal (blood clearance)” value [1] read?
**A.** decayed as a function of time as the conjugate cleared from the bloodstream

**Q.** And the “fluorescence signal after bolus injection (rise)” value [1]?
**A.** rapidly increased to a peak value

**Q.** For `CC1(C)C(/C=C/C=C/C=C/C=C2\N(CCCCS(=O)(=O)O)c3ccc4ccccc4c3C2(C)C)=[N+](CCCCS(=O)(=O)[O-])c2ccc3ccccc3c21` [ICG, indocyanine green], which reasonable images obtained [4] is on record?
**A.** reasonable images were obtained

**Q.** And the “perfusion of the agent into the tumor” value ([4]; 500 μL of 0.42 mg/mL in water)?
**A.** slow perfusion of the agent over time into the tumor

**Q.** And the “perfusion of the agent into the tumor” value [5]?
**A.** slow perfusion of the agent over time into the tumor

**Q.** And the reasonable images obtained [5]?
**A.** reasonable images were obtained

**Q.** What about the “perfusion of the agent into the tumor” value ([3]; CA20948, 30 minutes post injection) of the same molecule?
**A.** only a slight but transient perfusion that was absent after only 30 minutes post injection

**Q.** What about the “fluorescence in tumored rats at 45 minutes” value ([3]; CA20948) of the same molecule?
**A.** mostly cleared

**Q.** What about the non-specific localization ([3]; CA20948 compared to the other two tumor lines) of the same molecule?
**A.** no non-specific localization

**Q.** Which “targeting of somatostatin (SST-2) receptors” value [6] does the source give for `C[C@@H](O)[C@H](NC(=O)[C@@H]1CSSC[C@H](NC(=O)[C@H](N)Cc2ccccc2)C(=O)N[C@@H](Cc2ccc(O)cc2)C(=O)N[C@H](Cc2c[nH]c3ccccc23)C(=O)N[C@@H](CCCCN)C(=O)N[C@@H]([C@@H](C)O)C(=O)N1)C(=O)O` [Octreotate, D-Phe-Cys'-Tyr-D-Trp-Lys-Thr-Cys'-Thr] here?
**A.** known to target somatostatin (SST-2) receptors
